Assay [1] concerns the target T1, PDGFRα intracellular domain protein (Homo sapiens, UniProt P16234).
T1 construct: 125 ng/ml of PDGFRα intracellular domain protein (UPSTATE); purchased UPSTATE
Description: Determination of platelet-derived growth factor receptor α (PDGFRα) kinase inhibitory activity (AlphaScreen). In kind it is biochemical. The protocol:
(§1) A test compound dissolved in dimethyl sulfoxide (DMSO) was diluted with a buffer (50 mM Tris-HCl (pH 7.5), 5 mM MgCl2, 5 mM MnCl2, 2 mM dithiothreitol, 0.01% Tween-20). To this compound solution (5 μL) was added a buffer (10 μL) containing 125 ng/ml of PDGFRα intracellular domain protein (UPSTATE) and 250 ng/mL of biotin labeled polypeptide biotinyl-poly-Glu:Tyr (4:1) (CIS bio International). At 5 min after mixing kinase enzyme and the compound and biotin labeled polypeptide, to the obtained mixture was added a buffer (10 μL) containing ATP (25 μM), the mixture was allowed to react at 25° C. for 30 min and the reaction was quenched with 25 μL of a stop solution (100 mM EDTA disodium salt, 62.5 mM HEPES buffer (pH 7.4), 250 mM NaCl, 0.1% bovine serum albumin, 10 μg/mL AlphaScreen assay streptavidin donor beads (Streptavidin Donor beads: PerkinElmer), 10 μg/mL AlphaScreen assay anti-phosphotyrosine recognition antibody PT-66 binding acceptor beads (Anti-phosphotyrosine (P-Tyr-66) Acceptor beads: PerkinElmer)). The reaction solution was allowed to stand at 25° C. for 16 hrs, and the wells were counted using a plate reader Fusion™ (PerkinElmer). The kinase inhibitory rate (%) of the test compound was calculated by the following formula: Inhibitory rate(%)=(1−(count of test compound−blank)÷(control−blank))×100
(§2) The count of the solution reacted without addition of the compound was used as a “control”, and the count of the solution without the compound and ATP was used as a “blank”.

For assay [2], the target named is T2, PDGFRβ intracellular domain protein (Homo sapiens, UniProt P09619).
T2 construct: 125 ng/ml of PDGFRβ intracellular domain protein (UPSTATE); purchased UPSTATE
T2 sequence (P09619 554-1106 limits assumed): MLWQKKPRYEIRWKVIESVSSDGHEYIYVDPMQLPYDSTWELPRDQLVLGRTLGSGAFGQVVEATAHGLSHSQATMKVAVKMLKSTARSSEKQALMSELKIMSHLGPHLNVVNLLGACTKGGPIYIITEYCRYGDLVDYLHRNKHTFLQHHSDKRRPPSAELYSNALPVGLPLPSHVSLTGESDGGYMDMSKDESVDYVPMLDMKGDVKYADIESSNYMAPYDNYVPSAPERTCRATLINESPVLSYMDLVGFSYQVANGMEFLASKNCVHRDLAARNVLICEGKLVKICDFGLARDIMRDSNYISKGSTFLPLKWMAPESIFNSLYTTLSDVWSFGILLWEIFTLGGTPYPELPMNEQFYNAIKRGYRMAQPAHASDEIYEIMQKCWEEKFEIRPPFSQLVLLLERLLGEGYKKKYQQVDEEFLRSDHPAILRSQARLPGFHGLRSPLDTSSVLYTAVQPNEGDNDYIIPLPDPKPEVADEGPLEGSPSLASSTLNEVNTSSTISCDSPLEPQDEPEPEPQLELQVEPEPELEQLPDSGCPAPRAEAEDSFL
The assay is described as follows: Determination of platelet-derived growth factor receptor β (PDGFRβ) kinase inhibitory activity (AlphaScreen). In kind it is biochemical. The procedure: as §1, with “of PDGFRβ” for “of PDGFRα”, “Donor Beads:” for “Donor beads:”, “test compound[…])÷(control−blank))×100” for “test compound−blank)÷(control−blank))×100”
as §2
A general note: In Alpha technology, singlet oxygen from a donor bead excites a nearby acceptor bead.

Assay [3] relates to Human umbilical vein-derived vascular endothelial cells (HUVEC). The assay is described as follows: Vascular endothelial cell growth inhibitory test (VEGF-stimulated HUVEC, XTT). In kind it is cell-based. Particulars: 120 h, 5 days of culture. The protocol:
To be specific, HUVEC was suspended in a vascular endothelial cell medium containing the aforementioned 5% bovine fetal serum and plated on a 96 well flat bottom plate by 50 μL (3000 cells) each well. After culture overnight, various concentrations of the test substance and 120 ng/mL of vascular endothelial growth factor (VEGF) were dissolved in a vascular endothelial cell medium containing 5% bovine fetal serum and added to each well by 50 μL. After 5 days of culture, a XTT reagent (Wako Pure Chemical Industries, Ltd.) was added to each well by 10 μL, and the mixture was reacted in an incubator at 37° C., 5% carbon dioxide for 2-3 hr. The absorbance at 450 nm was measured by a microtiter plate reader and the cell growth inhibitory activity was determined.
On the technique in general: Tetrazolium assays rely on reduction of a dye to a coloured formazan, in cell work by metabolically active cells.

The target in assay [4] is T3, VEGFR2 intracellular domain protein (Homo sapiens, UniProt P35968).
T3 construct: made in house; host or cells: SF-21 insect cells, recombinant baculovirus BAC-VEGFR2
T3 sequence (P35968 786-1356 limits assumed): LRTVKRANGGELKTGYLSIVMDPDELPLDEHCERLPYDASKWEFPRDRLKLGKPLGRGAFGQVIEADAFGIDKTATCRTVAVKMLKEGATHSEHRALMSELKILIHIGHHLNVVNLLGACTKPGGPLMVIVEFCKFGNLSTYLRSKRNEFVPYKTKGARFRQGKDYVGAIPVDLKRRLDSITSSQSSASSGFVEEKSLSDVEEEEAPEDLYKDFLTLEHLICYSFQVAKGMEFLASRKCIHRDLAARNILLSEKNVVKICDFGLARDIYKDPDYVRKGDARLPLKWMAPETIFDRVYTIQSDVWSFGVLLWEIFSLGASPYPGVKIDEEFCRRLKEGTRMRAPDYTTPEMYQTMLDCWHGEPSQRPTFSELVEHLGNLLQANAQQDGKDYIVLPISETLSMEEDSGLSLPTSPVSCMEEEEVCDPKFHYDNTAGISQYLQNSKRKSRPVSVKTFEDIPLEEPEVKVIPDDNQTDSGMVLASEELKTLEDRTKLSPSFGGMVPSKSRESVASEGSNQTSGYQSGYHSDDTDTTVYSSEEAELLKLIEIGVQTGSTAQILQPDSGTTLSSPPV
Description: Determination of vascular endothelial growth factor receptor 2 (VEGFR2) kinase inhibitory activity (AlphaScreen). Format: biochemical. Particulars: read-out: VEGFR2 kinase inhibitory rate. The protocol:
Human vascular endothelial growth factor receptor 2 (hereinafter to be referred to as VEGFR2) gene was cloned by PCR using cDNA Libraries Human Placenta (Clontech) as a template. The primer used for PCR was prepared from base sequence (Genbank Accession AF035121) information of VEGFR2 gene by adding a base sequence encoding flag peptide and a recognition sequence of the restriction enzyme to a base sequence (2671-4374 of Genbank Accession AF035121) encoding the VEGFR2 intracellular domain region, so that the protein contains an N-terminal Flag tag. The primer base sequence is shown below.
SF-21 cells were sown at 1×10^6 cells/mL to Sf-900II SFM medium (1 L, Invitrogen) containing 10% fetal bovine serum (trace), 50 mg/L Gentamicin (Invitrogen) and 0.1% Pluronic F-68 (Invitrogen), and shaking culture was performed using a 2 L volume Erlenmeyer flask at 27° C., 100 rpm. After culturing for 24 hrs, recombinant baculovirus BAC-VEGFR2 (13.4 mL) was added to the mixture, and the mixture was further cultured for 3 days. The culture medium was centrifuged at 2,000 rpm for 5 min to give virus-infected cells. The infected cells were washed with a phosphate buffered saline (Invitrogen), centrifuged under the same conditions, and the cells were preserved at −80° C. The cryopreserved cells were thawed in ice, suspended in buffer A (50 mM Tris buffer (30 mL, pH 7.4) containing 20% glycerol, 0.15 M NaCl) supplemented with Complete Protease Inhibitor (Boehringer), and ruptured 3 times with a Polytron homogenizer (Kinematica) at 20,000 rpm for 30 sec. The ruptured medium was clarified by centrifugation at 40,000 rpm for 30 min and filtered with a 0.45 μm filter. The filtrate was passed through a column packed with Anti-FLAG M2 Affinity Gel (4 mL, Sigma) at a flow rate of about 0.5 mL/min. The column was washed with buffer A, and eluted with buffer A containing 100 μg/mL of FLAG peptide. The eluate was concentrated with Vivaspin 20 (Vivascience) having a molecular weight cut off of 30K. The buffer of this concentrate was exchanged using NAP™ 25 column (Amersham Bioscience) equilibrated with buffer A. The fractions containing intracellular domain protein of VEGFR2 were collected, glycerol was added to the final concentration of 50% and cryopreserved at −80° C.
A test compound dissolved in dimethyl sulfoxide (DMSO) was diluted with a buffer (50 mM Tris-HCl (pH 7.5), 5 mM MgCl2, 5 mM MnCl2, 2 mM dithiothreitol, 0.01% Tween-20). To this compound solution (5 μL) was added a buffer (10 μL) containing 50 ng/mL of VEGFR2 intracellular domain protein and 250 ng/mL of biotin labeled polypeptide biotinyl-poly-Glu:Tyr (4:1) (CIS bio International). To the obtained mixture was added a buffer (10 μL) containing ATP (25 μM), the mixture was allowed to react at 25° C. for 5 min and the reaction was quenched with 25 μL of a stop solution (100 mM EDTA disodium salt, 62.5 mM HEPES buffer (pH 7.4), 250 mM NaCl, 0.1% bovine serum albumin, 10 μg/mL AlphaScreen assay streptavidin donor beads (Streptavidin Donor beads: PerkinElmer), 10 μg/mL AlphaScreen assay anti-phosphotyrosine recognition antibody PY-100 binding acceptor beads (Anti-phosphotyrosine (P-Tyr-100) Acceptor beads: PerkinElmer)). The reaction solution was allowed to stand at 25° C. for 16 hrs, and the wells were counted using a plate reader Fusion™ (PerkinElmer). The kinase inhibitory rate (%) of the test compound was calculated by the following formula: Inhibitory rate(%)=(1−(count of test compound−blank)÷(control−blank))×100

The results in this text go back to patent US8034812B2, “Imidazopyridazine derivative having kinase inhibitory activity and pharmaceutical agent thereof” (Takeda Pharmaceutical Company Limited, priority 2006, dated 2011).

T1 sequence (P16234 550-1089 limits assumed): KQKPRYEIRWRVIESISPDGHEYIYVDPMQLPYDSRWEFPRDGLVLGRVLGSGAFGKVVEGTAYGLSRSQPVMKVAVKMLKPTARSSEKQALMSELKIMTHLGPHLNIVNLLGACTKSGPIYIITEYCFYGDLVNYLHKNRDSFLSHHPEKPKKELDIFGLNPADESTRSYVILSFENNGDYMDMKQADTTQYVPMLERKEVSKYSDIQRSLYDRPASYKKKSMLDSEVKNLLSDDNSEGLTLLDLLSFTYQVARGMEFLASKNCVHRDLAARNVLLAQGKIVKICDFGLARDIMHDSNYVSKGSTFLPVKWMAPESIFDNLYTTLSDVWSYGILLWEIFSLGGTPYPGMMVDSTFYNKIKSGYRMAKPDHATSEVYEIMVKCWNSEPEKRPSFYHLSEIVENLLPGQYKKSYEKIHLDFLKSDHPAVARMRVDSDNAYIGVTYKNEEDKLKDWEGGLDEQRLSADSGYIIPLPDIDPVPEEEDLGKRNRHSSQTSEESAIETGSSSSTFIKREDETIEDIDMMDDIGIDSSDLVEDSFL

Turning to `O=C(Nc1cccc(Oc2ccc3nc(NC(=O)C4CC4)cn3n2)c1)c1ccccc1` [Example 165, N-[3-({2-[(cyclopropylcarbonyl)amino]imidazo[1,2-b]pyridazin-6-yl}oxy)phenyl]benzamide], the 50% inhibitory concentration (IC50) in assay [1], in assay [2] and in assay [3] was at most 500 nM each time. The inhibition at 1 µM in assay [4] was at least 90%.
With `Cc1nn(C)cc1C(=O)Nc1cc(Oc2ccc3nc(NC(=O)C4CC4)cn3n2)ccc1F` [Example 173, N-[5-({2-[(cyclopropylcarbonyl)amino]imidazo[1,2-b]pyridazin-6-yl}oxy)-2-fluorophenyl]-1,3-dimethyl-1H-pyrazole-4-carboxamide], the half-maximal inhibitory concentration (IC50) in assay [1], in assay [2] and in assay [3] was at most 500 nM each time. The inhibition at 1 µM in assay [4] was at least 90%.
Turning to `CCn1nccc1C(=O)Nc1cc(Oc2ccc3nc(NC(=O)C4CC4)cn3n2)ccc1F` [Example 174, N-[5-({2-[(cyclopropylcarbonyl)amino]imidazo[1,2-b]pyridazin-6-yl}oxy)-2-fluorophenyl]-1-ethyl-1H-pyrazole-5-carboxamide], the IC50 in assay [1], in assay [2] and in assay [3] was at most 500 nM in each case. Besides, the inhibition at 1 µM in assay [4] is at least 90%.
Regarding `COc1cc(C(=O)Nc2cc(Oc3ccc4nc(NC(=O)C5CC5)cn4n3)ccc2F)n(C)n1` [Example 180, N-[5-({2-[(cyclopropylcarbonyl)amino]imidazo[1,2-b]pyridazin-6-yl}oxy)-2-fluorophenyl]-3-methoxy-1-methyl-1H-pyrazole-5-carboxamide], the half-maximal inhibitory concentration (IC50) in assay [1], in assay [2] and in assay [3] was at most 500 nM in each case. Further, in assay [4], the inhibition at 1 µM was at least 90%.
Turning to `Cc1cccnc1C(=O)Nc1cccc(Oc2ccc3nc(NC(=O)C4CC4)cn3n2)c1` [Example 187, N-[3-({2-[(cyclopropylcarbonyl)amino]imidazo[1,2-b]pyridazin-6-yl}oxy)phenyl]-3-methylpyridine-2-carboxamide], the concentration for half-maximal inhibition (IC50) in assay [1], in assay [2] and in assay [3] was at most 500 nM in each case. The inhibition at 1 µM in assay [4] is at least 90%.
Turning to `CCc1cc(C(=O)Nc2cc(Oc3ccc4nc(NC(=O)C5CC5)cn4n3)ccc2F)n(C)n1` [Example 208, N-[5-({2-[(cyclopropylcarbonyl)amino]imidazo[1,2-b]pyridazin-6-yl}oxy)-2-fluorophenyl]-3-ethyl-1-methyl-1H-pyrazole-5-carboxamide], the IC50 in assay [1], in assay [2] and in assay [3] was at most 500 nM each time. For the same compound, in assay [4], the inhibition at 1 µM was at least 90%.
With `CC#CC(=O)Nc1cc(Oc2ccc3nc(NC(=O)C4CC4)cn3n2)ccc1C` [Example 241, N-{6-[3-(but-2-ynoylamino)-4-methylphenoxy]imidazo[1,2-b]pyridazin-2-yl}cyclopropanecarboxamide], the IC50 in assay [1], in assay [2] and in assay [3] was at most 500 nM throughout. In assay [4], the inhibition at 1 µM was at least 90%.
Take `Cc1cc(C(=O)Nc2cc(Oc3ccc4nc(NC(=O)C5CC5C)cn4n3)ccc2F)n(C)n1` (stereo not shown) [Example 243, N-{2-fluoro-5-[(2-{[(2-methylcyclopropyl)carbonyl]amino}imidazo[1,2-b]pyridazin-6-yl)oxy]phenyl}-1,3-dimethyl-1H-pyrazole-5-carboxamide]: the 50% inhibitory concentration (IC50) in assay [1], in assay [2] and in assay [3] was at most 500 nM each time. For the same compound, the inhibition at 1 µM in assay [4] is at least 90%.
In the case of `CCc1cc(C(=O)Nc2cc(Oc3ccc4nc(NC(=O)C5CC5)cn4n3)ccc2Cl)n(C)n1` [Example 247, N-[2-chloro-5-({2-[(cyclopropylcarbonyl)amino]imidazo[1,2-b]pyridazin-6-yl}oxy)phenyl]-3-ethyl-1-methyl-1H-pyrazole-5-carboxamide], the concentration for half-maximal inhibition (IC50) in assay [1], in assay [2] and in assay [3] was at most 500 nM throughout. Moreover, the inhibition at 1 µM in assay [4] was at least 90%.
`Cc1nc(C)c(C(=O)Nc2cc(Oc3ccc4nc(NC(=O)C5CC5)cn4n3)ccc2F)s1` [Example 267, N-[5-({2-[(cyclopropylcarbonyl)amino]imidazo[1,2-b]pyridazin-6-yl}oxy)-2-fluorophenyl]-2,4-dimethyl-1,3-thiazole-5-carboxamide]: the IC50 in assay [1], in assay [2] and in assay [3] was at most 500 nM in each case. In assay [4], the inhibition at 1 µM was at least 90%.
